In US20260158017A1, “KIF18A INHIBITOR” (WIGEN BIOMEDICINE TECHNOLOGY (SHANGHAI) CO., LTD., priority 2021, published 2026):

What follows are compounds tested against T1, Recombinant human KIF18A (1-467His-tagged) protein (Homo sapiens, UniProt Q8NI77) (assay: KIF18A enzyme assay (microtubule-stimulated ATPase activity, ADP-Glo)). Conditions: 30 nM KIF18A, 75 μM ATP, 30 μg/mL pig microtubules; read-out: Inhibitory activity against KIF18A IC50.
T1 construct: Recombinant human KIF18A (1-467His-tagged) protein; His; made in house
Type: biochemical
In short: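 Buffer 15 mM Tris pH 7.5, 10 mM MgCl2, 0.01% Pluronic F-68, 1 μM paclitaxel, 30 μg/mL pig microtubules; reactions at room temperature. IC50 from inhibition relative to DMSO.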

T1 sequence (Q8NI77 1-467): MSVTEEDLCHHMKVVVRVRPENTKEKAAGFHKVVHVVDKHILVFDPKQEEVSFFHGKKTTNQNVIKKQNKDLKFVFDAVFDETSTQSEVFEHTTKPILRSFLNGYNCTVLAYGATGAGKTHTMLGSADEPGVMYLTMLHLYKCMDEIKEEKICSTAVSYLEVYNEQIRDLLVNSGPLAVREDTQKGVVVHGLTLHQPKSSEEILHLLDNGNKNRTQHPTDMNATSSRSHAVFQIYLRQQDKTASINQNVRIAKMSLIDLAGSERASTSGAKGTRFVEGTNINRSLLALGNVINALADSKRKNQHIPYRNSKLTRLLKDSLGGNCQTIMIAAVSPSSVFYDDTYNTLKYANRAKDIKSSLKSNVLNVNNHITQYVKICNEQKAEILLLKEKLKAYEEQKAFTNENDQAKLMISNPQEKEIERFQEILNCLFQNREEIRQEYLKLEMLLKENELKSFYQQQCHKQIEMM
T1 sequence (P02550 whole entry partner): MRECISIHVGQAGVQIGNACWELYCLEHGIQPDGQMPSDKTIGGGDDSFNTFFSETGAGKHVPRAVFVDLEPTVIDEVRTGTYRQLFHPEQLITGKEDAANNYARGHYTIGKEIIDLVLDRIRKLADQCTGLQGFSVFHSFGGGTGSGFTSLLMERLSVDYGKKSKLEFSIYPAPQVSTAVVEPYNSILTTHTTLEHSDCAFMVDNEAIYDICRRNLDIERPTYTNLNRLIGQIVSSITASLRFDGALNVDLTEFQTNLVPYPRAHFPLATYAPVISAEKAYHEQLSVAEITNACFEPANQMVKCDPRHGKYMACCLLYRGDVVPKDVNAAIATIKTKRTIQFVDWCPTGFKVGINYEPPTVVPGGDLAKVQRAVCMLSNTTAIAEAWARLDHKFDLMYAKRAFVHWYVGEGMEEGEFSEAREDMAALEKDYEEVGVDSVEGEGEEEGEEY
T1 sequence (P02554 whole entry partner): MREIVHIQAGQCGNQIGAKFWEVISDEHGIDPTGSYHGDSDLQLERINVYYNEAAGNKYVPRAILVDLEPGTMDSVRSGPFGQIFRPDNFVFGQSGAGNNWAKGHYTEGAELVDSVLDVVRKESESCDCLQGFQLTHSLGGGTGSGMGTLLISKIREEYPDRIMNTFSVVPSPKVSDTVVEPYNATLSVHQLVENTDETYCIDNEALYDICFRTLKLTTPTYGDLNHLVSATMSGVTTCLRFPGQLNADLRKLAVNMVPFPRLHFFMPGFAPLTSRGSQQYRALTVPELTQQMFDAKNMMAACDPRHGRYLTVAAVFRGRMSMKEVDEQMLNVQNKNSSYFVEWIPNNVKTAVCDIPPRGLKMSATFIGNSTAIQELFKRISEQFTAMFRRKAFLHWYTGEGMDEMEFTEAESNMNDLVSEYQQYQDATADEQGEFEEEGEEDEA

| SMILES | IC50 |
| --- | --- |
| C[C@H]1CN(c2cc(C(=O)Nc3cnc(S(=O)(=O)NCCO)cc3N3CCC4(CC3)CC4)ccc2[N+](=O)[O-])CCO1 [Compound 211] | 100 to 500 nM |
| O=C(Nc1cnc(S(=O)(=O)NCCO)cc1N1CCC2(CC1)CC2)c1ccc([N+](=O)[O-])c(N2CC(F)(F)C2)c1 [Compound 212] | 100 to 500 nM |
| O=C(Nc1cnc(S(=O)(=O)NCCO)cc1N1CCC2(CC1)CC2)c1ccc([N+](=O)[O-])c(OCCC(F)(F)F)c1 [Compound 213] | 100 to 500 nM |
| O=C(Nc1cnc(S(=O)(=O)NCCO)cc1N1CCC2(CC1)CC2)c1ccc([N+](=O)[O-])c(N2CCC3(CC3)C2)c1 [Compound 214] | 100 to 500 nM |
| O=C(Nc1cnc(S(=O)(=O)NCCO)cc1N1CCC2(CC1)CC2)c1ccc([N+](=O)[O-])c(OC2CCC2)c1 [Compound 215] | 100 to 500 nM |
| CC1(F)CCN(c2cc(C(=O)Nc3cnc(S(=O)(=O)NCCO)cc3N3CCC4(CC3)CC4)ccc2[N+](=O)[O-])C1 (stereo not drawn) [Compound 216] | 100 to 500 nM |
| O=C(Nc1cnc(S(=O)(=O)NCCO)cc1N1CCC2(CC1)CC2)c1ccc([N+](=O)[O-])c(N2CCC(F)CC2)c1 [Compound 217] | 100 to 500 nM |
| O=C(Nc1cnc(S(=O)(=O)NCCO)cc1N1CCC2(CC1)CC2)c1ccc([N+](=O)[O-])c(N2CC3CC3C2)c1 (stereo not drawn) [Compound 218] | 100 to 500 nM |
| CC(C)(CO)Nc1cc(C(=O)Nc2cnc(S(=O)(=O)NCCO)cc2N2CCC3(CC2)CC3)ccc1[N+](=O)[O-] [Compound 219] | 100 to 500 nM |
| O=C(Nc1cnc(S(=O)(=O)NCCO)cc1N1CCC2(CC1)CC2)c1ccc([N+](=O)[O-])c(N2CCOCC2)c1 [Compound 220] | 100 to 500 nM |
| C[C@@H](CO)NS(=O)(=O)c1cc(N2CCC3(CC2)CC3)c(NC(=O)c2ccc([N+](=O)[O-])c(N3CCC(F)(F)CC3)c2)cn1 [Compound 221] | 100 to 500 nM |
| C[C@H](CO)NS(=O)(=O)c1cc(N2CCC3(CC2)CC3)c(NC(=O)c2ccc([N+](=O)[O-])c(N3CCC(F)(F)CC3)c2)cn1 [Compound 222] | 100 to 500 nM |
| C[C@@H]1CN(c2cc(C(=O)Nc3cnc(S(=O)(=O)N[C@@H](C)CO)cc3N3CCC4(CC3)CC4)ccc2[N+](=O)[O-])CCO1 [Compound 223] | 100 to 500 nM |
| C[C@H](CO)NS(=O)(=O)c1cc(N2CCC3(CC2)CC3)c(NC(=O)c2ccc([N+](=O)[O-])c(N3CCO[C@H](C)C3)c2)cn1 [Compound 224] | 100 to 500 nM |
| O=C(Nc1cnc(NS(=O)(=O)CCO)cc1N1CCC2(CC1)CC2)c1ccc([N+](=O)[O-])c(N2CCC(F)(F)CC2)n1 [Compound 225] | ≤ 100 nM |
| C[C@@H]1CN(c2nc(C(=O)Nc3cnc(NS(=O)(=O)CCO)cc3N3CCC4(CC3)CC4)ccc2[N+](=O)[O-])CCO1 [Compound 226] | ≤ 100 nM |
| C[C@H]1CN(c2nc(C(=O)Nc3cnc(NS(=O)(=O)CCO)cc3N3CCC4(CC3)CC4)ccc2[N+](=O)[O-])CCO1 [Compound 227] | ≤ 100 nM |
| O=C(Nc1cnc(NS(=O)(=O)CCO)cc1N1CCC2(CC1)CC2)c1ccc([N+](=O)[O-])c(N2CC(F)(F)C2)n1 [Compound 228] | ≤ 100 nM |
| O=C(Nc1cnc(NS(=O)(=O)CCO)cc1N1CCC2(CC1)CC2)c1ccc([N+](=O)[O-])c(OCCC(F)(F)F)n1 [Compound 229] | ≤ 100 nM |
| O=C(Nc1cnc(NS(=O)(=O)CCO)cc1N1CCC2(CC1)CC2)c1ccc([N+](=O)[O-])c(N2CCC3(CC3)C2)n1 [Compound 230] | ≤ 100 nM |

| SMILES | IC50 |
| --- | --- |
| O=C(Nc1cnc(NS(=O)(=O)CCO)cc1N1CCC2(CC1)CC2)c1ccc([N+](=O)[O-])c(OC2CCC2)n1 [Compound 231] | ≤ 100 nM |
| CC1(F)CCN(c2nc(C(=O)Nc3cnc(NS(=O)(=O)CCO)cc3N3CCC4(CC3)CC4)ccc2[N+](=O)[O-])C1 (stereo not drawn) [Compound 232] | ≤ 100 nM |
| O=C(Nc1cnc(NS(=O)(=O)CCO)cc1N1CCC2(CC1)CC2)c1ccc([N+](=O)[O-])c(N2CCC(F)CC2)n1 [Compound 233] | ≤ 100 nM |
| O=C(Nc1cnc(NS(=O)(=O)CCO)cc1N1CCC2(CC1)CC2)c1ccc([N+](=O)[O-])c(N2CC3CC3C2)n1 (stereo not drawn) [Compound 234] | ≤ 100 nM |
| CC(C)(CO)Nc1nc(C(=O)Nc2cnc(NS(=O)(=O)CCO)cc2N2CCC3(CC2)CC3)ccc1[N+](=O)[O-] [Compound 235] | ≤ 100 nM |
| O=C(Nc1cnc(NS(=O)(=O)CCO)cc1N1CCC2(CC1)CC2)c1ccc([N+](=O)[O-])c(N2CCOCC2)n1 [Compound 236] | ≤ 100 nM |
| C[C@@H](CO)S(=O)(=O)Nc1cc(N2CCC3(CC2)CC3)c(NC(=O)c2ccc([N+](=O)[O-])c(N3CCC(F)(F)CC3)n2)cn1 [Compound 237] | ≤ 100 nM |
| C[C@H](CO)S(=O)(=O)Nc1cc(N2CCC3(CC2)CC3)c(NC(=O)c2ccc([N+](=O)[O-])c(N3CCC(F)(F)CC3)n2)cn1 [Compound 238] | ≤ 100 nM |
| C[C@@H]1CN(c2nc(C(=O)Nc3cnc(NS(=O)(=O)[C@@H](C)CO)cc3N3CCC4(CC3)CC4)ccc2[N+](=O)[O-])CCO1 [Compound 239] | ≤ 100 nM |
| C[C@@H]1CN(c2nc(C(=O)Nc3cnc(NS(=O)(=O)[C@H](C)CO)cc3N3CCC4(CC3)CC4)ccc2[N+](=O)[O-])CCO1 [Compound 240] | ≤ 100 nM |
| O=C(Nc1cnc(S(=O)(=O)NCCO)cc1N1CCC2(CC1)CC2)c1ccc([N+](=O)[O-])c(N2CCC(F)(F)CC2)n1 [Compound 241] | 100 to 500 nM |
| C[C@@H]1CN(c2nc(C(=O)Nc3cnc(S(=O)(=O)NCCO)cc3N3CCC4(CC3)CC4)ccc2[N+](=O)[O-])CCO1 [Compound 242] | 100 to 500 nM |
| C[C@H]1CN(c2nc(C(=O)Nc3cnc(S(=O)(=O)NCCO)cc3N3CCC4(CC3)CC4)ccc2[N+](=O)[O-])CCO1 [Compound 243] | 100 to 500 nM |
| O=C(Nc1cnc(S(=O)(=O)NCCO)cc1N1CCC2(CC1)CC2)c1ccc([N+](=O)[O-])c(N2CC(F)(F)C2)n1 [Compound 244] | 100 to 500 nM |
| O=C(Nc1cnc(S(=O)(=O)NCCO)cc1N1CCC2(CC1)CC2)c1ccc([N+](=O)[O-])c(OCCC(F)(F)F)n1 [Compound 245] | 100 to 500 nM |
| O=C(Nc1cnc(S(=O)(=O)NCCO)cc1N1CCC2(CC1)CC2)c1ccc([N+](=O)[O-])c(OC2CCC2)n1 [Compound 247] | 100 to 500 nM |
| CC1(F)CCN(c2nc(C(=O)Nc3cnc(S(=O)(=O)NCCO)cc3N3CCC4(CC3)CC4)ccc2[N+](=O)[O-])C1 (stereo not drawn) [Compound 248] | 100 to 500 nM |
| O=C(Nc1cnc(S(=O)(=O)NCCO)cc1N1CCC2(CC1)CC2)c1ccc([N+](=O)[O-])c(N2CCC(F)CC2)n1 [Compound 249] | 100 to 500 nM |
| O=C(Nc1cnc(S(=O)(=O)NCCO)cc1N1CCC2(CC1)CC2)c1ccc([N+](=O)[O-])c(N2CC3CC3C2)n1 (stereo not drawn) [Compound 250] | 100 to 500 nM |
| CC(C)(CO)Nc1nc(C(=O)Nc2cnc(S(=O)(=O)NCCO)cc2N2CCC3(CC2)CC3)ccc1[N+](=O)[O-] [Compound 251] | 100 to 500 nM |

| SMILES | IC50 |
| --- | --- |
| O=C(Nc1cnc(S(=O)(=O)NCCO)cc1N1CCC2(CC1)CC2)c1ccc([N+](=O)[O-])c(N2CCOCC2)n1 [Compound 252] | 100 to 500 nM |
| C[C@@H](CO)NS(=O)(=O)c1cc(N2CCC3(CC2)CC3)c(NC(=O)c2ccc([N+](=O)[O-])c(N3CCC(F)(F)CC3)n2)cn1 [Compound 253] | 100 to 500 nM |
| C[C@H](CO)NS(=O)(=O)c1cc(N2CCC3(CC2)CC3)c(NC(=O)c2ccc([N+](=O)[O-])c(N3CCC(F)(F)CC3)n2)cn1 [Compound 254] | 100 to 500 nM |
| C[C@@H]1CN(c2nc(C(=O)Nc3cnc(S(=O)(=O)N[C@@H](C)CO)cc3N3CCC4(CC3)CC4)ccc2[N+](=O)[O-])CCO1 [Compound 255] | 100 to 500 nM |
| C[C@H](CO)NS(=O)(=O)c1cc(N2CCC3(CC2)CC3)c(NC(=O)c2ccc([N+](=O)[O-])c(N3CCO[C@H](C)C3)n2)cn1 [Compound 256] | 100 to 500 nM |
| COc1ccc(NC(=O)c2ccc(NS(=O)(=O)CCO)cc2N2CCC3(CC2)CC3)nc1N1CCC(C)(F)C1 (stereo not drawn) [Compound 264] | ≤ 100 nM |
| COc1ccc(NC(=O)c2ccc(NS(=O)(=O)CCO)cc2N2CCC3(CC2)CC3)nc1N1CCC(F)CC1 [Compound 265] | ≤ 100 nM |
| COc1ccc(NC(=O)c2ccc(NS(=O)(=O)CCO)cc2N2CCC3(CC2)CC3)nc1N1CC2CC2C1 (stereo not drawn) [Compound 266] | ≤ 100 nM |
| COc1ccc(NC(=O)c2ccc(NS(=O)(=O)CCO)cc2N2CCC3(CC2)CC3)nc1NC(C)(C)CO [Compound 267] | ≤ 100 nM |
| COc1ccc(NC(=O)c2ccc(NS(=O)(=O)CCO)cc2N2CCC3(CC2)CC3)nc1N1CCOCC1 [Compound 268] | ≤ 100 nM |
| COc1ccc(NC(=O)c2ccc(NS(=O)(=O)[C@@H](C)CO)cc2N2CCC3(CC2)CC3)nc1N1CCC(F)(F)CC1 [Compound 269] | ≤ 100 nM |
| COc1ccc(NC(=O)c2ccc(NS(=O)(=O)[C@H](C)CO)cc2N2CCC3(CC2)CC3)nc1N1CCC(F)(F)CC1 [Compound 270] | ≤ 100 nM |
| COc1ccc(NC(=O)c2ccc(NS(=O)(=O)[C@@H](C)CO)cc2N2CCC3(CC2)CC3)nc1N1CCO[C@H](C)C1 [Compound 271] | ≤ 100 nM |
| COc1ccc(NC(=O)c2ccc(NS(=O)(=O)[C@H](C)CO)cc2N2CCC3(CC2)CC3)nc1N1CCO[C@H](C)C1 [Compound 272] | ≤ 100 nM |
| COc1ccc(NC(=O)c2ccc(S(=O)(=O)NCCO)cc2N2CCC3(CC2)CC3)nc1N1CCO[C@H](C)C1 [Compound 274] | ≤ 100 nM |
| COc1ccc(NC(=O)c2ccc(S(=O)(=O)NCCO)cc2N2CCC3(CC2)CC3)nc1N1CCO[C@@H](C)C1 [Compound 275] | ≤ 100 nM |
| COc1ccc(NC(=O)c2ccc(S(=O)(=O)NCCO)cc2N2CCC3(CC2)CC3)nc1N1CC(F)(F)C1 [Compound 276] | ≤ 100 nM |
| COc1ccc(NC(=O)c2ccc(S(=O)(=O)NCCO)cc2N2CCC3(CC2)CC3)nc1OCCC(F)(F)F [Compound 277] | ≤ 100 nM |
| COc1ccc(NC(=O)c2ccc(S(=O)(=O)NCCO)cc2N2CCC3(CC2)CC3)nc1N1CCC2(CC2)C1 [Compound 278] | ≤ 100 nM |
| COc1ccc(NC(=O)c2ccc(S(=O)(=O)NCCO)cc2N2CCC3(CC2)CC3)nc1OC1CCC1 [Compound 279] | ≤ 100 nM |
